From patent publication US12174198B2, “Methods of characterizing condensate-associated characteristics of compounds and uses thereof” (Dewpoint Therapeutics, Inc., priority 2019, dated 2024)
Structures can show the parent of a compound that is named as a salt.

Columns and labels:
Assay type in all cases: physicochemical
FUS-SNAP condensates = molecular target: T1, FUS-SNAP condensates (Homo sapiens, UniProt P35637); assay: Mass spectrometry-based depletion assay of compound partitioning; conditions: for Measured fraction outside of the FUS-SNAP condensates, single compound test reactions versus mixture of four compounds: FIG. 9A, 9B, 0.1 μM and 1 μM, triplicate; for Measured fraction outside of the FUS-SNAP condensates, single compound test reactions versus mixture of four compounds / Partitioning into FUS-condensates at different compound concentrations (fraction of compound in supernatant): 0.01 μM; for Ratio of compound concentration in versus compound concentration out, MS-based assay: condensate volume fraction of 1/1000 used; for Partitioning into FUS-condensates at different compound concentrations (fraction of compound in supernatant): FIG. 8, 0.1 μM, 1 μM and 10 μM, N=3 technical repeats; for Identified partitioning into FUS-condensates: as identified before Example 5
T1 sequence (P35637 1-526): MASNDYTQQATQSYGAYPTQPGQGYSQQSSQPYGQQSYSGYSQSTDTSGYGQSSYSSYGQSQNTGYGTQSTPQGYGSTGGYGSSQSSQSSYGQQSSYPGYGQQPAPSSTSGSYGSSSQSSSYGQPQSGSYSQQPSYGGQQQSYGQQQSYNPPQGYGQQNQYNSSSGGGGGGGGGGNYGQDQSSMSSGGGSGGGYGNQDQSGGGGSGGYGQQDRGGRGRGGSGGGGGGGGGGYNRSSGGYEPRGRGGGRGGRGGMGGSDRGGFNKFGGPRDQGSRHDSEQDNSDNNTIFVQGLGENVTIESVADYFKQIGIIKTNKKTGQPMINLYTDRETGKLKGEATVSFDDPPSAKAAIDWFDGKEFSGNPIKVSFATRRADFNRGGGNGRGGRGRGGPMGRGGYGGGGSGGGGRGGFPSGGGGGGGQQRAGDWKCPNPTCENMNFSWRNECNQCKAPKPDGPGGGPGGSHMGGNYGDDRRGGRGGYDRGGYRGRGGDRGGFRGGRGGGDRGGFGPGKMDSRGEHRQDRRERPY
Procedure: Protein Buffer was prepared (50 mM Tris, pH 7.25, 500 mM KCl, 1 mM DTT, and 5% glycerol). The high salt concentration of Protein Buffer prevents phase separation of macromolecules, e.g., proteins, contained therein. 20 μl aliquots of 70 μM FUS-SNAP protein stock solution were prepared in Protein Buffer. The aliquots of FUS-SNAP protein stock solution were frozen and stored prior to use. Dilution Buffer was prepared (14.7 mM Tris, pH 7.25, and 1 mM DTT).
Aliquots of 70 μM FUS-SNAP protein stock solution were thawed at room temperature for about 10 minutes. The aliquots of protein stock solution appeared clear with no visible precipitates. The thawed protein stock solution were filtered using centrifugation filters (Millipore, UFC30VV00). In brief, the aliquots of protein stock solution were added to a centrifugation filed and centrifuged for 1 minutes at 20,000 rcf at room temperature. The flow-through was collected. The protein concentration of the flow-through was measured and a solution of 33.3 μM FUS-SNAP was prepared by diluting the filtered flow-through and Dilution Buffer.
40 μL test reactions were prepared inside a PCR-tube or a PCR-strip (8 wells; AXYGEN™ 8-Strip PCR Tubes, 0.2 mL) using the following: (i) 34 μL Dilution Buffer, with the test compound at a given concentration, and with DMSO to obtain a final DMSO concentration of 1%, and (ii) 6 μL of 33.3 μM FUS-SNAP filtered protein solution. The final concentration of the 40 reactions were 5 μM FUS-SNAP, 75 mM KCl, 20 mM Tris, 0.75% Glycerol, 1 mM DTT, 1% DMSO, and, for the reactions containing a test compound, the desired test compound concentration.
40 μL reference reactions were prepared as described for the test reactions, however, no test compound was added at this stage.
The test reactions and the reference reactions were incubated for 15 minutes at room temperature. It is expected that within the test reactions, condensed high density liquid droplets (mM concentration of protein) of FUS-SNAP protein (condensed phase) are present in an environment of a lower concentrated solution (μM concentration of protein) of FUS-SNAP dilute phase. Test compounds may or may not partition into the condensed phase causing a reduction of the concentration outside (test compound in the dilute phase) and an increase of the concentration inside (test compound in the droplets). The volume of high density liquid droplets is estimated to be at least 1000-fold smaller than the total volume of the reaction, e.g., 20 nL of a condensed phase in a 20 μL reaction.
Following the 15 minute incubation period, the test reactions and reference reactions were processed to separate condensates (the high density liquid droplets) from the supernatant (the dilute phase). Briefly, the test reactions and reference reactions were centrifuged at 10,000 rcf for 10 minutes in a cooled centrifuge at 20° C. When PCR-strips were sued, the rotor used was the Eppendorf F-45-48-5-PCR. 35 μL of the supernatant from each tube was removed and transferred to a new tube being careful not to disturb the pellets, which contained the condensates.
For the reference reactions, a known amount of the test compound was added to the tube containing the supernatant (which contains protein not associated with a condensate), such that the final compound concentration is the same as the initial concentration of the compound in the test reaction. Reference reactions can also be formed by measuring the amount of protein in the supernatant of a test reaction and replicating a supernatant solution based on the obtained information. The known amount of the compound added to the supernatant from the reference reaction was used to calibrate the mass spectrometry signal of the test reaction.
Additionally, the compound was extracted from the test reactions in order to directly measure the amount of compound in the formed condensates. […]

[1] = tested on: FUS-SNAP condensates versus PGL-3 condensates; assay: Condensate preference: ratio of FUS-SNAP I-in:I-out to PGL-3 I-in:I-out; conditions: average FUS-SNAP I-in:I-out divided by average PGL-3 I-in:I-out
Summary of the method: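 Values compare FUS-SNAP against PGL-3 condensates through their I-in:I-out ratios. Each ratio is the average intensity within the condensates over that outside them, averaged across two separate days.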

FUS-GFP condensates = molecular target: T2, FUS-GFP condensates (Homo sapiens, UniProt P35637); assay: Co-localization of dye and FUS in FUS-GFP condensates (confocal imaging); conditions: FIG. 6; FUS-GFP channel and Rhodamine 800 channel
T2 sequence (P35637 1-526): T1 sequence (P35637 1-526)
Procedure: FUS-GFP condensates were prepared as described for FUS-SNAP in Example 2 using Dye 18.
A spinning disk confocal microscope was used to acquire images of the samples. A 60×oil high-NA objective lens was used to capture the condensate droplets. The laser power was set to 20% and the exposure times were adjusted to the fluorescence emission intensity specific for each dye. Exposure times ranged from 1-1000 ms. Appropriate filter settings were used, matching the excitation and emission spectra of the dye and GFP. Control images were taken of condensates containing FUS-GFP with no dye.

SMILES	Ratio of compound concentration in versus compound concentration out, MS-based assay (FUS-SNAP condensates)	Ratio of FUS-SNAP:PGL-3 [1]	Identified partitioning into FUS-condensates (FUS-SNAP condensates)	Co-localization of dye with GFP-labeled FUS in condensates (FUS-GFP condensates)	Measured fraction outside of the FUS-SNAP condensates, single compound test reactions versus mixture of four compounds (FUS-SNAP condensates)	Partitioning into FUS-condensates at different compound concentrations (fraction of compound in supernatant) (FUS-SNAP condensates)
CCN(CC)c1ccc2c(-c3ccccc3C(=O)O)c3ccc(=[N+](CC)CC)cc-3oc2c1 [Dye 16, Rhodamine B]	666	3.0			in agreement	
O=C([O-])c1ccccc1C1=c2cc3c4c(c2Oc2c1cc1c5c2CCCN5CCC1)CCC[N+]=4CCC3 [Dye 17, Rhodamine 101 inner salt]	>8,000	3.2	partitioning into FUS-condensates			partition into the FUS-condensates at lower compound concentrations
N#CC1=c2cc3c4c(c2Oc2c1cc1c5c2CCCN5CCC1)CCC[N+]=4CCC3 [Dye 18, Rhodamine 800]	>2,000	3.2		co-localized in the condensates		

Further lines, with some results ahead:

Ratio of compound concentration in versus compound concentration out, MS-based assay (FUS-SNAP condensates)	Ratio of FUS-SNAP:PGL-3 [1]	Identified partitioning into FUS-condensates (FUS-SNAP condensates)	Co-localization of dye with GFP-labeled FUS in condensates (FUS-GFP condensates)	SMILES	Measured fraction outside of the FUS-SNAP condensates, single compound test reactions versus mixture of four compounds (FUS-SNAP condensates)	Partitioning into FUS-condensates at different compound concentrations (fraction of compound in supernatant) (FUS-SNAP condensates)
1-100	1.5	not partitioning into FUS-condensates		O=C1OC2(c3ccc(O)cc3Oc3cc(O)ccc32)c2ccccc21 [Dye 6, Fluorescein]	in agreement	does not partition into the FUS-condensates at any of the tested concentrations
1-100	1.2			COC(=O)c1ccccc1-c1c2ccc(=N)cc-2oc2cc(N)ccc12.Cl [Dye 14, Rhodamine 123]		
